Measured values published in PubChem BioAssay (NCI).
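Method: 48-hour compound exposure of cells in 96-well plates, five concentrations, linear interpolation of endpoints. Here, GI50 denotes the concentration required for 50% inhibition of growth. TGI: total growth inhibition.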

What was measured:
Assay in all cases: NCI-60 cell line screen, 48 h
MDA-MB-435 = test system: MDA-MB-435
HS 578T breast = test system: HS 578T breast
BT-549 breast = test system: BT-549 breast
MDA-N = test system: MDA-N
DLD-1 colon = test system: DLD-1 colon
LXFL 529 NSCLC = test system: LXFL 529 NSCLC
HOP-18 NSCLC = test system: HOP-18 NSCLC
DMS 273 small cell lung = test system: DMS 273 small cell lung

CN1CCN(c2ccc(Nc3ncc4cc(C#N)c(=O)n(C5CCCC5)c4n3)cc2)CC1 was tested, and the GI50 (MDA-MB-435) was 3.1 µM, the TGI (MDA-MB-435) was > 100 µM and the GI50 (HS 578T breast) was 0.807 µM. The TGI (HS 578T breast) was 6.07 µM, the GI50 (BT-549 breast) was 2.65 µM and the TGI (BT-549 breast) was 7.58 µM.
In the case of C=C1CC[C@@H](C(C)C)C[C@@H]2[C@H]([C@H](O)C[C@]2(C)O)[C@@]2(C)CC[C@@H]1O2, the GI50 (MDA-MB-435) is reported as 16.4 µM, the TGI (MDA-MB-435) is reported as 32.1 µM and the GI50 (HS 578T breast) is reported as 31.5 µM. For the same compound, the TGI (HS 578T breast) was 82.7 µM, the GI50 (BT-549 breast) was 27.6 µM and the TGI (BT-549 breast) was 55.1 µM.
Nc1ccc2[nH]cc(CCC(=O)O)c2c1 was tested, and the TGI (MDA-MB-435) was > 100 µM, the TGI (HS 578T breast) was > 100 µM and the TGI (MDA-N) was > 100 µM. For the same compound, the TGI (BT-549 breast) was > 100 µM.
For OCC(O)CNc1ccnc2cc(Cl)ccc12 (centres undefined), the TGI (DLD-1 colon) was > 100 µM, the TGI (LXFL 529 NSCLC) was > 100 µM and the TGI (HOP-18 NSCLC) was > 100 µM.
In the case of O=C(N/N=C/c1c(Cl)cccc1Cl)c1ccc(C(F)(F)F)nc1Nc1cccc(C(F)(F)F)c1, the GI50 (MDA-MB-435) is reported as 2.37 µM, the TGI (MDA-MB-435) is reported as > 100 µM and the GI50 (HS 578T breast) is reported as 1.75 µM. For the same compound, the TGI (HS 578T breast) was 18 µM, the GI50 (BT-549 breast) was 2.6 µM and the TGI (BT-549 breast) was 9 µM.
For O=C(NO)c1ccc(CN(c2cnccn2)c2cnccn2)cc1, the GI50 (MDA-MB-435) was 12.2 µM, the TGI (MDA-MB-435) was 27.7 µM and the GI50 (HS 578T breast) was 23.3 µM. It also gave a TGI (HS 578T breast) of 96.8 µM, a GI50 (BT-549 breast) of 13.8 µM and a TGI (BT-549 breast) of 29.9 µM.
For Cc1ccc(Nc2nnc(-c3ccc4c(c3)OCO4)o2)c(C)c1, the TGI (MDA-MB-435) was > 100 µM, the TGI (HS 578T breast) was > 100 µM and the TGI (MDA-N) was > 100 µM. The TGI (BT-549 breast) was > 100 µM.
Work on CCCCCc1ccc(S(=O)(=O)Nc2cc(-c3csc(NC(C)=O)n3)ccc2N2CCN(C)CC2)cc1 yielded a GI50 (MDA-MB-435) of 4.85 µM, a TGI (MDA-MB-435) of 9.5 µM and a GI50 (HS 578T breast) of 5.12 µM. It also gave a TGI (HS 578T breast) of 13.4 µM, a GI50 (BT-549 breast) of 4.98 µM and a TGI (BT-549 breast) of 10.1 µM.
With Cc1cccc(C)c1NC(=O)C(=O)CC(=O)c1cccc([N+](=O)[O-])c1 the TGI (DLD-1 colon) was > 100 µM, the TGI (LXFL 529 NSCLC) was > 100 µM and the TGI (DMS 273 small cell lung) was > 100 µM. The TGI (HOP-18 NSCLC) was > 100 µM.
With Cc1ccc(S(=O)(=O)NC(=O)NC2=NC(C)(C)N(c3ccc(Cl)c(Cl)c3)C(N)=N2)cc1 the TGI (HS 578T breast) was > 100 µM, the TGI (MDA-N) was > 100 µM and the TGI (BT-549 breast) was > 100 µM.
S=C1SC2=Nc3ccccc3CN2C2=NCCN12 was tested, and the GI50 (MDA-MB-435) was > 100 µM, the TGI (MDA-MB-435) was > 100 µM and the GI50 (BT-549 breast) was 99.9 µM. The TGI (BT-549 breast) was > 100 µM.
For CCCCCCCCCCN1CCC(N2CCCCC2)CC1, the GI50 (MDA-MB-435) was 1.47 µM, the TGI (MDA-MB-435) was 3.55 µM and the GI50 (HS 578T breast) was 2.06 µM. For the same compound, the TGI (HS 578T breast) was 6.25 µM, the GI50 (BT-549 breast) was 3.62 µM and the TGI (BT-549 breast) was 16.1 µM.
O=C(Nc1ccc(Cl)c(Cl)c1)Nc1ccccc1O was tested, and the GI50 (MDA-MB-435) was 3.96 µM, the TGI (MDA-MB-435) was 15.3 µM and the GI50 (HS 578T breast) was 6.69 µM. For the same compound, the TGI (HS 578T breast) was 37.5 µM, the GI50 (BT-549 breast) was 24.9 µM and the TGI (BT-549 breast) was 91.3 µM.
Work on Cc1cc(C)n(-c2nnc3n2N=C(c2ccc(-c4ccccc4)cc2)CS3)n1 yielded a GI50 (MDA-MB-435) of 1.71 µM, a TGI (MDA-MB-435) of 4.46 µM and a GI50 (HS 578T breast) of 2.76 µM. For the same compound, the TGI (HS 578T breast) was > 100 µM, the GI50 (BT-549 breast) was 3.69 µM and the TGI (BT-549 breast) was > 100 µM.
Compound Clc1cc(Cl)cc(Nc2ccc3cc(OCCCN4CCOCC4)ccc3n2)c1 has a GI50 (HS 578T breast) of 1.99 µM, a TGI (HS 578T breast) of 5.43 µM and a GI50 (BT-549 breast) of 2.65 µM. For the same compound, the TGI (BT-549 breast) was 9.44 µM.
For Cn1c(=O)c2c(ncn2CC(=O)Nc2ccc(-c3ccccc3)nn2)n(C)c1=O, the GI50 (MDA-MB-435) was > 100 µM, the TGI (MDA-MB-435) was > 100 µM and the GI50 (HS 578T breast) was > 100 µM. The TGI (HS 578T breast) was > 100 µM, the GI50 (BT-549 breast) was > 100 µM and the TGI (BT-549 breast) was > 100 µM.
For COC(C(=O)[C@@H](O)[C@@H](C)O)[C@@H]1Cc2cc3cc(O[C@H]4C[C@@H](O[C@H]5C[C@@H](O)[C@H](O)C(C)O5)[C@H](O)C(C)O4)c(C)c(O)c3c(O)c2C(=O)[C@H]1O[C@H]1C[C@@H](O[C@H]2C[C@@H](O[C@H]3C[C@@H](O)[C@H](OC)C(C)O3)[C@@H](O)C(C)O2)[C@H](O)C(C)O1 (some centres undefined), the GI50 (MDA-MB-435) was 0.0219 µM, the TGI (MDA-MB-435) was 0.197 µM and the GI50 (HS 578T breast) was 0.019 µM. For the same compound, the TGI (HS 578T breast) was > 33.3 µM, the GI50 (BT-549 breast) was 0.0219 µM and the TGI (BT-549 breast) was 0.258 µM.
Work on Cc1cc(C(C)(C)C)cc(Cc2cc(C(C)(C)C)cc(Cc3cc(C(C)(C)C)cc(C)c3O)c2O)c1O yielded a TGI (DLD-1 colon) of 18.5 µM, a TGI (LXFL 529 NSCLC) of 20.5 µM and a TGI (DMS 273 small cell lung) of 22.8 µM. For the same compound, the TGI (HOP-18 NSCLC) was 29 µM.
For COC(=O)/C(=C\c1ccc(N(CCC#N)CCC#N)cc1)NC(=O)c1cc([N+](=O)[O-])ccc1Cl, the TGI (DLD-1 colon) was > 100 µM, the TGI (LXFL 529 NSCLC) was > 100 µM and the TGI (DMS 273 small cell lung) was > 100 µM. The TGI (HOP-18 NSCLC) was > 100 µM.
With COC1=C(Br)C(=O)c2nc(C)ccc2C1=O the TGI (DLD-1 colon) was 22.2 µM, the TGI (LXFL 529 NSCLC) was 16.7 µM and the TGI (DMS 273 small cell lung) was 31.8 µM. It also gave a TGI (HOP-18 NSCLC) of 30.9 µM.
With O=C(CSC(c1ccccc1)c1ccccc1)N/N=C/c1ccco1 the GI50 (MDA-MB-435) was 2.01 µM, the TGI (MDA-MB-435) was 11.5 µM and the GI50 (HS 578T breast) was 2.23 µM. For the same compound, the TGI (HS 578T breast) was 5.82 µM, the GI50 (BT-549 breast) was 1.69 µM and the TGI (BT-549 breast) was 2.78 µM.
COc1ccc2c3c(Nc4ccc(/C(C)=N/O)cc4)[nH]c4ccccc4c-3c(N=O)c2c1 showed a GI50 (MDA-MB-435) of 2.77 µM, a TGI (MDA-MB-435) of 11.9 µM and a GI50 (HS 578T breast) of 7.04 µM. The TGI (HS 578T breast) was 37 µM, the GI50 (BT-549 breast) was 3.98 µM and the TGI (BT-549 breast) was 23.1 µM.
CCCCCCCCCCCCOC1C(C(CC(=O)NCCN2CCCC2)NS(=O)(=O)c2cc(Cl)cc(Cl)c2)OC2OC(C)(C)OC21 (centres undefined) was tested, and the GI50 (MDA-MB-435) was 1.41 µM, the TGI (MDA-MB-435) was 3.03 µM and the GI50 (HS 578T breast) was 2.23 µM. It also gave a TGI (HS 578T breast) of 4.16 µM, a GI50 (BT-549 breast) of 1.79 µM and a TGI (BT-549 breast) of 3.24 µM.
C/C(CCn1[nH]c(=O)ccc1=O)=N\OCCCc1ccccc1 was tested, and the TGI (DLD-1 colon) was > 100 µM, the TGI (LXFL 529 NSCLC) was > 100 µM and the TGI (DMS 273 small cell lung) was > 100 µM. For the same compound, the TGI (HOP-18 NSCLC) was > 100 µM.
Nc1nc(N)c2cc(CNc3ccc(C(=O)NC(CC(=O)O)C(=O)O)c(Cl)c3)ccc2n1 (centres undefined) was tested, and the GI50 (MDA-MB-435) was 0.05 µM, the TGI (MDA-MB-435) was > 500 µM and the TGI (HS 578T breast) was > 500 µM. For the same compound, the GI50 (MDA-N) was 0.05 µM, the TGI (MDA-N) was > 500 µM and the GI50 (BT-549 breast) was > 500 µM. The TGI (BT-549 breast) was > 500 µM.
In the case of COc1ccc2c(Oc3ccc(NC(=O)c4c(C)n(CC(C)(C)O)n(-c5ccccc5)c4=O)nc3)ccnc2c1, the GI50 (MDA-MB-435) is reported as 6.57 µM, the TGI (MDA-MB-435) is reported as > 66.5 µM and the GI50 (HS 578T breast) is reported as 21.1 µM. The TGI (HS 578T breast) was > 100 µM, the GI50 (BT-549 breast) was 22.7 µM and the TGI (BT-549 breast) was > 66 µM.
With N.N.NCCCCCCCCCN.O=C([O-])CC(=O)[O-].O=C([O-])CC(=O)[O-].[Pt+4].[Pt+4] the GI50 (DLD-1 colon) was > 100 µM, the TGI (DLD-1 colon) was > 100 µM and the GI50 (LXFL 529 NSCLC) was > 100 µM. The TGI (LXFL 529 NSCLC) was > 100 µM, the GI50 (DMS 273 small cell lung) was > 100 µM and the TGI (DMS 273 small cell lung) was > 100 µM. For the same compound, the GI50 (HOP-18 NSCLC) was > 100 µM and the TGI (HOP-18 NSCLC) was > 100 µM.
Compound CCN(CC)c1cc2oc3cc(N)cc(=N)c-3nc2cc1C has a GI50 (HS 578T breast) of 2.18 µM, a TGI (HS 578T breast) of 7.25 µM and a GI50 (BT-549 breast) of 10.6 µM. The TGI (BT-549 breast) was 27.4 µM.
In the case of CC1C(=O)OC2CC[N+]3([O-])CC=C(COC(=O)C(C)(O)C1(C)O)C23 (centres undefined), the TGI (MDA-MB-435) is reported as > 100 µM, the TGI (HS 578T breast) is reported as > 100 µM and the TGI (MDA-N) is reported as > 100 µM. For the same compound, the TGI (BT-549 breast) was > 100 µM.
